Source: paper PMC11696576, “Next generation thiazolyl ketone inhibitors of cytosolic phospholipase A2 α for targeted cancer therapy” (Nature Communications, 2025)
Values joined by “and” are separate entries in the source; they are usually repeats but may differ in a detail not shown here. Equal entries are not always repeated. Where two headings read alike, the source gives them in different places.

How the values were obtained:
whole blood = test: eicosanoid release from LPS-stimulated whole blood; type: cell-based, human; parameters: LTB4 / 5-HETE / 11,12-EET / 12-HETE: unit not given here; conditions: for 15-HETE level, whole blood / PGE2 level, whole blood / TxB2 level, whole blood: individual replicate
Excerpt: In whole blood, bacterial lipopolysaccharide (LPS) stimulated the release of PGE2, thromboxane B2 (TXB2), and 15-hydroxyeicosatetraenoic acid (HETE). […] The levels of leukotriene B4 (LTB4), 12-HETE, 5-HETE and 11,12-epoxyeicosatrienoic acid (EET) were not affected by LPS stimulation but increased when exogenous AA was included, irrespective of the presence of GK420 (Fig. S1a).
Fig. 3 Ex vivo suppression of eicosanoid production by GK420. a Eicosanoid levels (pmol/mL) in the plasma of whole blood pretreated with vehicle (DMSO), 3, 10 or 30 µM GK420,) 10 µM arachidonyl trifluoromethyl ketone (ATK), or 1 μM indomethacin (Indo) before stimulation with 1 µg/mL LPS for 24 h. […] All box and whisker plots show the mean (center line), stdev (box), and min and max values (whiskers) from 4 biological replicates. P-values were determined using RM-one way ANOVA with Dunnett’s correction for multiple comparisons.
Aliquots of 0.4 mL of heparinized whole blood were mixed with 1.6 mL of serum-free RPMI cultivation medium with- or without indomethacin (# I7378, Sigma-Aldrich), GK420, or arachidonyl trifluoromethyl ketone (ATK) (Cayman #62120), prior to the addition of lipopolysaccharides (LPS) (1 μg/mL) to activate the cPLA2α enzyme (LPS was from E. coli 026:B6 γ-irradiated, #L2654, Sigma-Aldrich). Exogenous arachidonic acid (5–10 µM) (#3555, Sigma-Aldrich) was added after 23.5 h, for the final 30 mins of the 24 h stimulation. Following treatment (24 h, 37 °C, 5% CO2), the diluted blood was centrifuged (5992 × g for 10 min at 4 °C) to isolate the plasma from the cell fraction. Plasma samples were stored at −80 °C until analysis. Samples were analyzed at the Lipid Maps Consortium, UCSD according to the standard methods. 200 µL of sample was subjected to solid phase extraction of the eicosanoids using the StrataX solid phase extraction columns from Phenomenex and analyzed by UHPLC-MS/MS using full standards mix.

CCRF-CEM cells = test: cell viability, CTG assay, CCRF-CEM; conditions: for cell viability (0 µM = 100): listed as AVX420; for cell viability (Control = 100): VEH
Protocol: Data are the mean ± stdev of 3 biological replicates. c Viability of healthy T-cells measured by propidium iodide (PI) exclusion. Data are the mean ± stdev of 8 biological replicates for 1–16 µM AVX420, 5 for 32 µM AVX420 and 2 for 0.5 µM Staurosporine (Stau). d Cell viability measured by CTG assay in cells preincubated with 2.5 mM glutathione (GSH) or 2.5 mM N-acetyl cysteine (NAC) for 30 min before addition of 0.5 or 1 µM AVX420, 0.06 µM RSL-3, or 0.06 µM ML-210 for 24 h. Data are the mean ± stdev of 3 biological replicates. P-values were determined by one-way ANOVA with Dunnett’s correction for multiple testing and **** indicates P < 0.0001. e Cell viability measured by CTG assay. CCRF-CEM or Jurkat cells were co-treated with 0.5 µM AVX420 and either arachidonic acid (AA) at concentrations ranging from 1 to 100 µM or a mixture of 9 eicosanoids: 6-keto prostaglandin F1α, Thromboxane B2, prostaglandin F2α, prostaglandin E2, prostaglandin D2, 12(S)-HHTrE, 15(S)-HETE,12(S)-HETE, 5(S)-HETE at a final concentration of 2 ng/mL each (EIC-mix) for 24 h. Data are the mean ± stdev of 3 biological replicates. P-values were determined by two-way ANOVA with Sidak’s correction for multiple comparisons. f Proportion of intracellular ROS-positive cells measured by ROS-red staining and flow cytometry. Cells were treated with indicated concentrations of AVX420 (µM), 1 mM H2O2, 1 µM RSL-3, or 1 µM doxorubicin (dox) for 4 h. Data are the mean ± stdev of 3 biological replicates. g Intracellular ROS measurements in CCRF-CEM cells treated with AVX420 (0.5 µM), AVX002 (8 µM), or AACOCF3 (8 µM) for 4 h.
All cell lines were confirmed to be free of mycoplasma contamination. The cell lines were not authenticated. MV-4-11 were cultured in Iscove’s Modified Dulbecco’s Medium (Sigma, I3390). CCRF-CEM, Jurkat E6.1, and HL-60 cells were cultured in RPMI 1640 Medium RPMI-1640 medium (Sigma, R5886).

[1] = 10 uM + LPS + AA, listed as AVX420

CCCCCCCOc1ccc(OCC(=O)c2nc(C(=O)OC)cs2)cc1 [GK420]
15-HETE level, whole blood (whole blood; 3 uM + LPS): 0.23 pmol/mL and 1.1 pmol/mL and 0.41 pmol/mL and 0.42 pmol/mL
PGE2 level, whole blood (whole blood; 3 uM + LPS): 0.2 pmol/mL and 2.5 pmol/mL and 0.7 pmol/mL and 0.9 pmol/mL
TxB2 level, whole blood (whole blood; 3 uM + LPS): 1 pmol/mL and 10.1 pmol/mL and 3.2 pmol/mL and 4.5 pmol/mL
15-HETE level, whole blood (whole blood; 10 uM + LPS + AA): 68.15 pmol/mL and 72.88 pmol/mL and 78.71 pmol/mL and 78.11 pmol/mL
PGE2 level, whole blood (whole blood; 10 uM + LPS + AA): 11.8 pmol/mL and 18.9 pmol/mL and 15.6 pmol/mL and 18.2 pmol/mL
TxB2 level, whole blood (whole blood; 10 uM + LPS + AA): 14.6 pmol/mL and 27.5 pmol/mL and 24.1 pmol/mL and 18.1 pmol/mL
5-HETE (whole blood; [1]): 59.11 and 60.82 and 63.51 and 71.56
11,12-EET (whole blood; [1]): 12.46 and 11.85 and 10.02 and 12.34
12-HETE (whole blood; [1]): 73 and 139.7 and 83.5 and 77.9
LTB4 (whole blood; [1]): 0.6 and 0.8
15-HETE level, whole blood (whole blood; 10 uM + LPS): 0.65 pmol/mL and 0.26 pmol/mL and 0.51 pmol/mL and 0.31 pmol/mL
PGE2 level, whole blood (whole blood; 10 uM + LPS): 1.7 pmol/mL and 0.3 pmol/mL and 0.7 pmol/mL and 0.1 pmol/mL
TxB2 level, whole blood (whole blood; 10 uM + LPS): 8.4 pmol/mL and 1.9 pmol/mL and 2.9 pmol/mL and 0.8 pmol/mL
15-HETE level, whole blood (whole blood; 30 uM + LPS): 0.31 pmol/ml (2×) and 0.35 pmol/ml and 0.42 pmol/ml
PGE2 level, whole blood (whole blood; 30 uM + LPS): 0.05 pmol/ml and 0.4 pmol/ml and 0.1 pmol/ml (2×)
TxB2 level, whole blood (whole blood; 30 uM + LPS): 0.2 pmol/mL and 3.4 pmol/mL and 1.2 pmol/mL and 1.5 pmol/mL
production of PGE2, TXB2 and 15-HETE (whole blood; whole blood, LPS): suppressed their production
production of PGE2, TXB2 and 15-HETE with excess free AA (whole blood; whole blood, LPS + exogenous free AA): no effect
cell viability (0 µM = 100) (CCRF-CEM cells; 0.007 µM, 24H): 100
cell viability (0 µM = 100) (CCRF-CEM cells; 0.015 µM, 24H): 90
cell viability (0 µM = 100) (CCRF-CEM cells; 0.015 µM, 72H): 81
cell viability (0 µM = 100) (CCRF-CEM cells; 0.031 µM, 24H): 99
cell viability (0 µM = 100) (CCRF-CEM cells; 0.062 µM, 24H): 103
cell viability (0 µM = 100) (CCRF-CEM cells; 0.062 µM, 48H): 84
cell viability (0 µM = 100) (CCRF-CEM cells; 0.062 µM, 72H): 70
cell viability (0 µM = 100) (CCRF-CEM cells; 0.125 µM, 72H): 45 and 46
cell viability (0 µM = 100) (CCRF-CEM cells; 0.25 µM, 24H): 69 and 65
cell viability (0 µM = 100) (CCRF-CEM cells; 0.25 µM, 48H): 43
cell viability (0 µM = 100) (CCRF-CEM cells; 0.25 µM, 72H): 16 and 24
cell viability (0 µM = 100) (CCRF-CEM cells; 0.5 µM, 24H): 42 and 39
cell viability (0 µM = 100) (CCRF-CEM cells; 0.5 µM, 48H): 19
cell viability (0 µM = 100) (CCRF-CEM cells; 0.5 µM, 72H): 5.44 and 10
cell viability (Control = 100) (CCRF-CEM cells; 0.5 µM, listed as AVX420, 0.5 µM): 56 and 50
cell viability (0 µM = 100) (CCRF-CEM cells; 1 µM, 24H): 23
cell viability (0 µM = 100) (CCRF-CEM cells; 1 µM, 48H): 10
cell viability (0 µM = 100) (CCRF-CEM cells; 1 µM, 72H): 3 and 4.53
cell viability (Control = 100) (CCRF-CEM cells; 1 µM, listed as AVX420, 1 µM): 38
cell viability (0 µM = 100) (CCRF-CEM cells; 2 µM, 24H): 11
cell viability (0 µM = 100) (CCRF-CEM cells; 2 µM, 48H): 3 and 2
cell viability (0 µM = 100) (CCRF-CEM cells; 2 µM, 72H): 1.13
cell viability (0 µM = 100) (CCRF-CEM cells; 4 µM, 72H): 0.147
effect on viability (CCRF-CEM cells; CTG): strong dose-dependent effect
viability at 0.007 µM (CCRF-CEM cells; Homo sapiens, 24 h, read-out: cell viability (0 µM = 100), CCRF-CEM, 0.007 µM, 24H): 98%
viability at 0.015 µM (CCRF-CEM cells; Homo sapiens, 24 h, read-out: cell viability (0 µM = 100), CCRF-CEM, 0.015 µM, 24H): 98%
viability at 0.031 µM (CCRF-CEM cells; Homo sapiens, 24 h, read-out: cell viability (0 µM = 100), CCRF-CEM, 0.031 µM, 24H): 98%
viability at 0.062 µM (CCRF-CEM cells; Homo sapiens, 24 h, read-out: cell viability (0 µM = 100), CCRF-CEM, 0.062 µM, 24H): 98%
viability at 0.25 µM (CCRF-CEM cells; Homo sapiens, 24 h, read-out: cell viability (0 µM = 100), CCRF-CEM, 0.25 µM, 24H): 68%
viability at 0.5 µM (CCRF-CEM cells; Homo sapiens, 24 h, read-out: cell viability (0 µM = 100), CCRF-CEM, 0.5 µM, 24H): 49%
viability at 1 µM (CCRF-CEM cells; Homo sapiens, 24 h, read-out: cell viability (0 µM = 100), CCRF-CEM, 1 µM, 24H): 27%
viability at 2 µM (CCRF-CEM cells; Homo sapiens, 24 h, read-out: cell viability (0 µM = 100), CCRF-CEM, 2 µM, 24H): 14%
viability at 0.007 µM (CCRF-CEM cells; Homo sapiens, 48 h, read-out: cell viability (0 µM = 100), CCRF-CEM, 0.007 µM, 48H): 94%
viability at 0.015 µM (CCRF-CEM cells; Homo sapiens, 48 h, read-out: cell viability (0 µM = 100), CCRF-CEM, 0.015 µM, 48H): 95%
viability at 0.031 µM (CCRF-CEM cells; Homo sapiens, 48 h, read-out: cell viability (0 µM = 100), CCRF-CEM, 0.031 µM, 48H): 87%
viability at 0.062 µM (CCRF-CEM cells; Homo sapiens, 48 h, read-out: cell viability (0 µM = 100), CCRF-CEM, 0.062 µM, 48H): 85%
viability at 0.125 µM (CCRF-CEM cells; Homo sapiens, 48 h, read-out: cell viability (0 µM = 100), CCRF-CEM, 0.125 µM, 48H): 67%
viability at 0.25 µM (CCRF-CEM cells; Homo sapiens, 48 h, read-out: cell viability (0 µM = 100), CCRF-CEM, 0.25 µM, 48H): 41%
viability at 0.5 µM (CCRF-CEM cells; Homo sapiens, 48 h, read-out: cell viability (0 µM = 100), CCRF-CEM, 0.5 µM, 48H): 17%
viability at 1 µM (CCRF-CEM cells; Homo sapiens, 48 h, read-out: cell viability (0 µM = 100), CCRF-CEM, 1 µM, 48H): 9%
viability at 2 µM (CCRF-CEM cells; Homo sapiens, 48 h, read-out: cell viability (0 µM = 100), CCRF-CEM, 2 µM, 48H): 4%
viability at 0.007 µM (CCRF-CEM cells; Homo sapiens, 72 h, read-out: cell viability (0 µM = 100), CCRF-CEM, 0.007 µM, 72H): 82%
viability at 0.015 µM (CCRF-CEM cells; Homo sapiens, 72 h, read-out: cell viability (0 µM = 100), CCRF-CEM, 0.015 µM, 72H): 78%
viability at 0.031 µM (CCRF-CEM cells; Homo sapiens, 72 h, read-out: cell viability (0 µM = 100), CCRF-CEM, 0.031 µM, 72H): 76%
viability at 0.062 µM (CCRF-CEM cells; Homo sapiens, 72 h, read-out: cell viability (0 µM = 100), CCRF-CEM, 0.062 µM, 72H): 67%
viability at 0.125 µM (CCRF-CEM cells; Homo sapiens, 72 h, read-out: cell viability (0 µM = 100), CCRF-CEM, 0.125 µM, 72H): 40%
viability at 0.25 µM (CCRF-CEM cells; Homo sapiens, 72 h, read-out: cell viability (0 µM = 100), CCRF-CEM, 0.25 µM, 72H): 21%
viability at 0.5 µM (CCRF-CEM cells; Homo sapiens, 72 h, read-out: cell viability (0 µM = 100), CCRF-CEM, 0.5 µM, 72H): 7%
viability at 1 µM (CCRF-CEM cells; Homo sapiens, 72 h, read-out: cell viability (0 µM = 100), CCRF-CEM, 1 µM, 72H): 3.38%
viability at 2 µM (CCRF-CEM cells; Homo sapiens, 72 h, read-out: cell viability (0 µM = 100), CCRF-CEM, 2 µM, 72H): 1%
viability at 4 µM (CCRF-CEM cells; Homo sapiens, 72 h, read-out: cell viability (0 µM = 100), CCRF-CEM, 4 µM, 72H): 0.214%
viability at 0.5 µM (CCRF-CEM cells; Homo sapiens, read-out: cell viability (Control = 100), CCRF-CEM, 0.5 µM, VEH): 52%
viability at 1 µM (CCRF-CEM cells; Homo sapiens, read-out: cell viability (Control = 100), CCRF-CEM, 1 µM, VEH): 37%
